Experimental data taken from patent publication US8916579B2, “5-fluoropyrimidinone derivatives” (Dow AgroSciences, LLC., priority 2009, dated 2014).
Read-outs that look alike come from different tables or passages of the source.

Tests used:
[1] = system: Mycosphaerella graminicola; anamorph: Septoria tritici; Bayer code SEPTTR; experiment: Fungicidal activity: leaf blotch of wheat, greenhouse wheat plants (variety Yuma), percent disease control; type: in vivo; settings: Zymoseptoria tritici
Experimental: Evaluation of Fungicidal Activity: Leaf Blotch of Wheat (Mycosphaerella graminicola; anamorph: Septoria tritici; Bayer code SEPTTR)
Wheat plants (variety Yuma) were grown from seed in a greenhouse in 50% mineral soil/50% soil-less Metro mix until the first leaf was fully emerged, with 7-10 seedlings per pot. These plants were inoculated with an aqueous spore suspension of Septoria tritici either prior to or after fungicide treatments. After inoculation the plants were kept in 100% relative humidity (one day in a dark dew chamber followed by two to three days in a lighted dew chamber) to permit spores to germinate and infect the leaf. The plants were then transferred to a greenhouse for disease to develop.
The effectiveness of the test compounds in controlling disease was determined by assessing the severity of disease on treated plants, then converting the severity to percent control based on the level of disease on untreated, inoculated plants. • In each case of Table II the rating scale is as follows: […]

[2] = 24 h, One-Day Protectant (1DP), 100 ppm, wheat plants, read-out: SEPTTR 100 PPM 1DP (% Disease Control rating)
[3] = 72 h, Three-Day Curative (3DC), 100 ppm, wheat plants, read-out: SEPTTR 100 PPM 3DC (% Disease Control rating)
[4] = 24 h, read-out: SEPTTR 100 PPM 1DP (% Disease Control rating)
[5] = 72 h, read-out: SEPTTR 100 PPM 3DC (% Disease Control rating)

Compound | melting point | pest or weed control at 100 ppm [1, 2] [%] | pest or weed control at 100 ppm [1, 3] [%] | pest or weed control at 100 ppm [1, 4] [%] | pest or weed control at 100 ppm [1, 5] [%]
CCCCCNC(=O)Nc1nc(=O)n(CC2CC2)cc1F [Compound 87] | 113 to 114.9 °C | 0 to 25 | 51 to 75 | – | –
O=c1nc(NCc2ccccc2F)c(F)cn1-c1ccsc1 [Compound 65, 5-fluoro-4-(2-fluorobenzylamino)-1-(thiophen-3-yl)pyrimidin-2(1H)-one] | 75 to 78 °C | 0 to 25 | 0 to 25 | – | –
Nc1nc(=O)n(CCCCI)cc1F [Compound 26, 4-amino-5-fluoro-1-(4-iodobutyl)-1H-pyrimidin-2-one] | 181 to 184 °C | – | – | 0 to 25 | 26 to 50
N#Cc1cccc(-n2cc(F)c(N)nc2=O)c1 [Compound 46] | 175 to 178 °C | 0 to 25 | 0 to 25 | – | –
Nc1nc(=O)n(COc2ccc(Cl)cc2)cc1F [Compound 19] | 240 to 245 °C | 26 to 50 | 0 to 25 | – | –
Nc1nc(=O)n(Cc2ccc(F)cc2F)cc1F [Compound 33] | 250 to 254 °C | 0 to 25 | 51 to 75 | – | –
CSCn1cc(F)c(/N=C/N(C)C)nc1=O [Compound 24, N′-(5-fluoro-1-methylsulfanylmethyl-2-oxo-1,2-dihydropyrimidin-4-yl)-N,N-dimethylformamidine] | 132 to 136 °C | – | – | 76 to 100 | 76 to 100
Cc1ccc(NC(=O)Nc2nc(=O)n(CC3CC3)cc2F)cc1 [Compound 88] | 205.6 to 207.5 °C | 0 to 25 | 51 to 75 | – | –
Nc1nc(=O)n(CCCCn2cncn2)cc1F [Compound 27, 4-amino-5-fluoro-1-(4-[1,2,4]triazol-1-yl-butyl)-1H-pyrimidin-2-one] | 197 to 200 °C | 0 to 25 | 0 to 25 | – | –
O=C(Oc1ccccc1)N(C(=O)Oc1ccccc1)c1nc(=O)n(CC2CC2)cc1F [Compound 82] | 159 to 161 °C | – | – | 26 to 50 | 26 to 50
CC(C)Cn1cc(F)c(NC(=O)c2ccccc2F)nc1=O [Compound 98] | 161.3 to 163 °C | 0 to 25 | 0 to 25 | – | –
O=C(Nc1nc(=O)n(CC2CCCO2)cc1F)c1ccccc1F (stereo not drawn) [Compound 96] | 119.8 to 121.9 °C | 0 to 25 | 26 to 50 | – | –
C[Si](C)(C)CCOCn1cc(F)c(N)nc1=O [Compound 17] | 187 to 192 °C | 51 to 75 | 76 to 100 | – | –
COc1ccc(-n2cc(F)c(NCc3ccccc3F)nc2=O)cc1OC [Compound 66] | 206.3 to 207.9 °C | 0 to 25 | 0 to 25 | – | –
CSCn1cc(F)c(NC(=O)Nc2ccccc2Cl)nc1=O [Compound 86] | 181.8 to 183.5 °C | 26 to 50 | 26 to 50 | – | –
CCOC(=O)Nc1nc(=O)n(CC2CC2)cc1F [Compound 80, ethyl 1-(cyclopropylmethyl)-5-fluoro-2-oxo-1,2-dihydropyrimidin-4-ylcarbamate] | 90 to 92 °C | – | – | 0 to 25 | 51 to 75
COc1ccc(CCn2cc(F)c(N)nc2=O)cc1 [Compound 30] | 168 to 189 °C | 0 to 25 | 76 to 100 | – | –
Nc1nc(=O)n(COCc2ccccc2)cc1F [Compound 14, 4-amino-1-(benzyloxymethyl)-5-fluoropyrimidin-2(1H)-one] | 213 to 217 °C | 0 to 25 | 0 to 25 | – | –
O=C(Nc1nc(=O)n(CC2CC2)cc1F)OCc1ccccc1 [Compound 81] | 228 to 230 °C | 26 to 50 | 76 to 100 | – | –
CC(C)COC(=O)Nc1nc(=O)n(C)cc1F [Compound 10, (5-fluoro-1-methyl-2-oxo-1,2-dihydropyrimidin-4-yl)carbamic acid isobutyl ester] | 126 to 128 °C | – | – | 26 to 50 | 51 to 75
Cc1ccc(NC(=O)Nc2nc(=O)n(Cc3cccnc3)cc2F)cc1 [Compound 90] | 178.2 to 180 °C | 0 to 25 | 0 to 25 | – | –
O=C(Nc1ccccc1Cl)Nc1nc(=O)n(CC2CC2)cc1F [Compound 85, 1-(2-chlorophenyl)-3-(1-(cyclopropylmethyl)-5-fluoro-2-oxo-1,2-dihydropyrimidin-4-yl)urea] | 197 to 199 °C | 0 to 25 | 0 to 25 | – | –
O=C(Nc1ccccc1Cl)Nc1nc(=O)n(Cc2cccnc2)cc1F [Compound 91] | 210.5 to 212.3 °C | 0 to 25 | 0 to 25 | – | –

Continued, in another order:

melting point | Compound | pest or weed control at 100 ppm [1, 2] [%] | pest or weed control at 100 ppm [1, 3] [%] | pest or weed control at 100 ppm [1, 4] [%] | pest or weed control at 100 ppm [1, 5] [%]
88.8 to 91.7 °C | CC(C)Cn1cc(F)c(NCc2cccs2)nc1=O [Compound 106] | 26 to 50 | 26 to 50 | – | –
100.2 to 101.8 °C | CCCCCNC(=O)Nc1nc(=O)n(CSC)cc1F [Compound 92] | 76 to 100 | 76 to 100 | – | –
125.6 to 127.5 °C | CC(C)Cn1cc(F)c(NC(=O)c2cccs2)nc1=O [Compound 99] | 0 to 25 | 76 to 100 | – | –
259 to 264 °C | CC(C)(C)C(=O)OCn1cc(F)c(N)nc1=O [Compound 22] | 76 to 100 | 76 to 100 | – | –
279 °C (dec.) | CCn1cc(F)c(N)nc1=O [Compound 29] | 51 to 75 | 76 to 100 | – | –
188.8 to 190.2 °C | CSCn1cc(F)c(NC(=O)Nc2ccc(C)cc2)nc1=O [Compound 93] | 0 to 25 | 51 to 75 | – | –
275 to 279 °C | Nc1nc(=O)n(-c2ccc3c(c2)OCO3)cc1F [Compound 47] | 26 to 50 | 0 to 25 | – | –
179.2 to 181.1 °C | Nc1nc(=O)n(CC2CCCO2)cc1F (stereo not drawn) [Compound 76] | 0 to 25 | 51 to 75 | – | –
150 to 154 °C | CCOC(=O)C(OCC)n1cc(F)c(N)nc1=O (stereo not drawn) [Compound 20] | 0 to 25 | 0 to 25 | – | –
213.5 to 214.4 °C | C=Cn1cc(F)c(N)nc1=O [Compound 41] | 76 to 100 | 76 to 100 | – | –
179.6 to 181.3 °C | C=Cn1cc(F)c(/N=C/N(C)C)nc1=O [Compound 58] | 76 to 100 | 76 to 100 | – | –
166 to 170 °C | CCCCCCCCOCn1cc(F)c(N)nc1=O [Compound 18] | 26 to 50 | 51 to 75 | – | –
195 °C (dec.) | Cn1cc(F)c(N)nc1=O [Compound 28, 4-amino-5-fluoro-1-methylpyrimidin-2(1H)-one] | 51 to 75 | 76 to 100 | – | –
196 to 200 °C | CN(C)/C=N/c1nc(=O)n(Cc2ccc(F)c(F)c2)cc1F [Compound 35] | 51 to 75 | 51 to 75 | – | –
157 to 160 °C | CCn1cc(F)c(/N=C/N(C)C)nc1=O [Compound 34, (E)-N′-(1-ethyl-5-fluoro-2-oxo-1,2-dihydropyrimidin-4-yl)-N,N-dimethylformimidamide] | 76 to 100 | 76 to 100 | – | –
168.6 to 169.1 °C | C=Cn1cc(F)c(NCc2ccccc2F)nc1=O [Compound 67] | 0 to 25 | 51 to 75 | – | –
210 to 214 °C | CCCC(=O)OCn1cc(F)c(N)nc1=O [Compound 21] | 76 to 100 | 76 to 100 | – | –
134.5 to 136.5 °C | CC(=O)Nc1nc(=O)n(CC(C)C)cc1F [Compound 97] | 26 to 50 | 26 to 50 | – | –
140 to 142.8 °C | CC(C)Cn1cc(F)c(N)nc1=O [Compound 77] | 26 to 50 | 0 to 25 | – | –
157 to 187 °C (dec.) | CN(C)CNc1nc(=O)n(CN(C)C)cc1F [Compound 3] | 76 to 100 | 76 to 100 | – | –
178 to 179 °C | Cc1ccc(Cn2cc(F)c(/N=C/N(C)C)nc2=O)cc1 [Compound 7] | 0 to 25 | 0 to 25 | – | –
162 to 166 °C | CCOC(=O)OC(C)n1cc(F)c(N)nc1=O (stereo not drawn) [Compound 23] | 76 to 100 | 76 to 100 | – | –
